Common to all, as to type: in vivo
For data set [1], the system named is Monochoria vaginalis. Briefly: Test Example 1: herbicidal activity, application before weed generation in submerged conditions (symbol C). The following applies: application herbicide amount 320 g/ha. The method, boiled down:
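Flooded alluvial soil (4 cm water) was mixed-sown with the three weed species, and 2.5-leaf rice seedlings were transplanted. On sowing day, a water-diluted emulsion at a predetermined rate was applied to the water surface. After 3 weeks in a 25–30 °C greenhouse, effect was scored 0–5.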

Data set [2] has as its system Scirpus juncoides. Nature of the data set: Test Example 2: herbicidal activity, application during weed generation in submerged conditions (symbol B). The following applies: Table 23; application herbicide amount 320 g/ha; grade 0-5 by criteria of Test Example 1. The method, boiled down:
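Scoring of herbicidal effect took place 3 weeks after treatment, using the criteria of the earlier test. Treatment was water-surface application of diluted emulsifiable compound at a set dose. Plants were at one- to two-leaf stage in submerged alluvial soil (4 cm depth), greenhouse 25-30° C.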

Data set [3] relates to directly sowed rice plant. Nature of the data set: Test Example 3: effect on crop by foliage application, Wagner pot (symbol b). Particulars: application herbicide amount 320 g/ha. The method, boiled down: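 Steps: fill a 1/10000-are Wagner pot with alluvial soil; add water and mix to submerge at 0.1–0.5 cm depth; sow rice plus Echinochloa crus-galli var. crus-galli, Leptochloa chinensis and Cyperus difformis; grow in a 25–30 °C greenhouse.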

Data set [4] concerns Abutilon theophrasti. Nature of the data set: Test Example 4: herbicidal effect by soil treatment (symbol M). Particulars: application herbicide amount 320 g/ha. The method in brief:
(§1)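 Seeds were sown in sterilized diluvial soil, covered with about 1.5 cm of soil, and the soil surface was sprayed with a water-diluted emulsion of the compound at a predetermined rate. Plants grew in a greenhouse at 25° C. to 30° C.; effects were scored visually 3 weeks after application.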

Data set [5] has as its system Stellaria media. Nature of the data set: Test Example 4: herbicidal effect by soil treatment (symbol P). The following applies: application herbicide amount 320 g/ha. The method in brief: as §1
Data set [6] concerns beet. Briefly: Test Example 4: effect on crop by soil treatment (symbol f). Particulars: application herbicide amount 320 g/ha. The method in brief:
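Crop seeds, among them rice, wheat, beet and rapeseed, were sown in sterilized diluvial soil and covered with about 1.5 cm of soil. Boxes were kept in a greenhouse at 25° C. to 30° C. for plant growth.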

Data set [7] concerns Echinochloa crus-galli var. crus-galli. Briefly: Test Example 5: herbicidal effect by foliage application, plastic box (symbol H). The following applies: 320 g/ha, 3 weeks after application. The method, boiled down:
(§2)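 Sowing in sterilized diluvial soil, 14 days' greenhouse growth at 25° C. to 30° C., then uniform small-sprayer foliar application of aqueous emulsion dilution; plants scored three weeks afterwards.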

Data set [8] relates to Lolium multiflorum Lam. Nature of the data set: Test Example 5: herbicidal effect by foliage application, plastic box (symbol K). The following applies: 320 g/ha, 3 weeks after application. The method in brief: as §2
Data set [9] concerns soybean. Briefly: Test Example 5: effect on crop by foliage application, plastic box (symbol d). The following applies: 320 g/ha, 3 weeks after application. The method, boiled down:
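Greenhouse test at 25° C. to 30° C. Seeds of crops and weeds were spot-sown in boxes of sterilized diluvial soil under roughly 1.5 cm soil cover, then grown for foliage treatment.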

The structures appear in SMILES notation.

As for `CON=C(C)C(=NOC)C1CC(O)=C(c2c(C)cc(C)cc2C)C1=O` (stereo not drawn) [8-003], in data set [1], the “Herbicidal effect grade, C: Monochoria vaginalis” value (from here on “Herbicidal effect grade, C”) is on record as 0 (Herbicidal ratio of 5% or lower (almost no effect)). In addition, the “Herbicidal effect grade, B: Scirpus juncoides” value (“Herbicidal effect grade, B” below) in data set [2] is 0 (Herbicidal ratio of 5% or lower (almost no effect)). Moreover, the “b (directly sowed rice plant) effect on crop grade” value in [3] (Table 24) is 0 (Herbicidal ratio of 5% or lower (almost no effect)). The “Herbicidal effect grade, M: Abutilon theophrasti” value (“Herbicidal effect grade, M” below) in [4] is on record as 0 (Herbicidal ratio of 5% or lower (almost no effect)). For the same molecule, the “Herbicidal effect grade, P: Stellaria media” value (from here on “Herbicidal effect grade, P”) in [5] is reported as 0 (Herbicidal ratio of 5% or lower (almost no effect)). Moreover, the “Effect on crop grade, f: beet” value in data set [6] was 0 (Herbicidal ratio of 5% or lower (almost no effect)). Besides, the “H: Echinochloa crus-galli var. crus-galli, herbicidal effect grade” value in data set [7] is reported as 0 (Herbicidal ratio of 5% or lower (almost no effect)). Further, the “K: Lolium multiflorum Lam., herbicidal effect grade” value in data set [8] was 2 (Herbicidal ratio of 20% or higher and lower than 40%). Moreover, in data set [9], the “d: soybean, effect on crop grade” value is 0 (Herbicidal ratio of 5% or lower (almost no effect)).

Take `CON=C(C)CC1CC(O)=C(c2c(C)cc(-c3cc(F)c(F)c(F)c3)cc2C)C1=O` (stereo not drawn) [6-104]: the “Herbicidal effect grade, C” value in data set [1] is recorded as 5 (Herbicidal ratio of 90% or more (almost completely withered)). In data set [2], the “Herbicidal effect grade, B” value is recorded as 5 (Herbicidal ratio of 90% or more (almost completely withered)). Besides, the “effect on crop b (directly sowed rice plant), grade 0-5” value (“effect on crop b” for short) in data set [3] is given as 5 (Herbicidal ratio of 90% or more (almost completely withered)). In addition, the “Herbicidal effect grade, M” value in data set [4] is recorded as 5 (Herbicidal ratio of 90% or more (almost completely withered)). Further, in data set [5], the “Herbicidal effect grade, P” value was 3 (Herbicidal ratio of 40% or higher and lower than 70%). Besides, the “Effect on crop grade, f: beet” value in data set [6] is 4 (Herbicidal ratio of 70% or higher and lower than 90%). Further, the “H: Echinochloa crus-galli var. crus-galli, herbicidal effect (criteria of Test Example 1)” value in data set [7] was 5 (Herbicidal ratio of 90% or more (almost completely withered)). The “K: Lolium multiflorum Lam., herbicidal effect (criteria of Test Example 1)” value in [8] is reported as 5 (Herbicidal ratio of 90% or more (almost completely withered)). Also, in data set [9], the “d: soybean, effect on crop (criteria of Test Example 1)” value is 3 (Herbicidal ratio of 40% or higher and lower than 70%).

Turning to `CC(=O)CC1CC(O)=C(c2c(C)cc(OCc3ccccc3)cc2C)C1=O` (stereo not drawn) [7-018], the “Herbicidal effect grade, C” value in data set [1] is recorded as 0 (Herbicidal ratio of 5% or lower (almost no effect)). Moreover, in data set [2], the “Herbicidal effect grade, B” value was 0 (Herbicidal ratio of 5% or lower (almost no effect)). Also, the “effect on crop b” value in data set [3] was 3 (Herbicidal ratio of 40% or higher and lower than 70%). For the same molecule, in data set [4], the “Herbicidal effect grade, M” value is 0 (Herbicidal ratio of 5% or lower (almost no effect)). Further, the “Herbicidal effect grade, P” value in data set [5] is reported as 0 (Herbicidal ratio of 5% or lower (almost no effect)). Further, the “Effect on crop grade, f: beet” value in data set [6] is 0 (Herbicidal ratio of 5% or lower (almost no effect)). In addition, the “H: Echinochloa crus-galli var. crus-galli, herbicidal effect (criteria of Test Example 1)” value in data set [7] is 4 (Herbicidal ratio of 70% or higher and lower than 90%). For the same molecule, the “K: Lolium multiflorum Lam., herbicidal effect (criteria of Test Example 1)” value in data set [8] was 2 (Herbicidal ratio of 20% or higher and lower than 40%). In addition, the “d: soybean, effect on crop (criteria of Test Example 1)” value in [9] is 0 (Herbicidal ratio of 5% or lower (almost no effect)).

Consider `CC(CC1CC(O)=C(c2c(C)cc(C)cc2C)C1=O)=NOCc1ccccc1` (stereo not drawn) [1-020], for which the “Herbicidal effect grade, C” value in data set [1] is 4 (Herbicidal ratio of 70% or higher and lower than 90%). Further, the “Herbicidal effect grade, B” value in [2] was 3 (Herbicidal ratio of 40% or higher and lower than 70%). Moreover, the “effect on crop b” value in [3] is given as 5 (Herbicidal ratio of 90% or more (almost completely withered)). The “M (Abutilon theophrasti) herbicidal effect grade” value in data set [4] was 3 (Herbicidal ratio of 40% or higher and lower than 70%). Besides, in data set [5], the “P (Stellaria media) herbicidal effect grade” value is recorded as 0 (Herbicidal ratio of 5% or lower (almost no effect)). Besides, the “f (beet) effect on crop grade” value in [6] is 0 (Herbicidal ratio of 5% or lower (almost no effect)). For the same molecule, the “H: Echinochloa crus-galli var. crus-galli, herbicidal effect grade” value in data set [7] was 5 (Herbicidal ratio of 90% or more (almost completely withered)). In data set [8], the “K: Lolium multiflorum Lam., herbicidal effect grade” value is given as 5 (Herbicidal ratio of 90% or more (almost completely withered)). The “d: soybean, effect on crop grade” value in data set [9] is 0 (Herbicidal ratio of 5% or lower (almost no effect)).

The values above are taken from patent US11000033B2, “Ketone or oxime compound, and herbicide” (NISSAN CHEMICAL CORPORATION, priority 2014, dated 2021).
